Measured values taken from patent US7863014B2 (priority 2001, dated 2011).

Key:
[1] = molecular target: M. tuberculosis Ppnk protein (Mycobacterium tuberculosis, UniProt P9WHV7); format: biochemical, M. tuberculosis H37Rv
[2] = tested on: polyphosphate-dependent NAD kinase from Micrococcus flavus; format: biochemical

Chain of M. tuberculosis Ppnk protein (P9WHV7 whole entry): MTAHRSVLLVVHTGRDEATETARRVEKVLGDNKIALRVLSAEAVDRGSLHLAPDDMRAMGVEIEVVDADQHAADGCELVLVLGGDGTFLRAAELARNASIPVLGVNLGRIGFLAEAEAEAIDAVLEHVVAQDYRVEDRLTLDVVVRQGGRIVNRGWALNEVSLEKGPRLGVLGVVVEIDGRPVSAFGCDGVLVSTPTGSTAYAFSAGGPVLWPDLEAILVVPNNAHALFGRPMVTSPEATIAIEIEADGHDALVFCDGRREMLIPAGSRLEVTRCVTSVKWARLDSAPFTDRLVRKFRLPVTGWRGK

`Nc1ncnc2c1ncn2[C@@H]1O[C@H](COP(=O)(O)OP(=O)(O)OP(=O)(O)O)[C@@H](O)[C@H]1O` [ATP] was tested, and the ATP/polyphosphate reaction ratio [1] was “ATP (100%)” and the ATP/polyphosphate reaction ratio [2] was “ATP (100%)”.
`[Cl][Al]([Cl])[Cl]` [AlCl3] was tested, and the “Activation by metal ions” value [1] was “AlCl3 (0%)” and the “Activation by metal ions” value [2] was “AlCl3 (0%)”.
With `[Ca+2].[Cl-].[Cl-]` [CaCl2] the “Activation by metal ions” value [1] was “CaCl2 (34%)” and the “Activation by metal ions” value [2] was “CaCl2 (65%)”.
`[Cl-].[Cl-].[Co+2]` [CoCl2] was tested, and the “Activation by metal ions” value [1] was “CoCl2 (55%)” and the “Activation by metal ions” value [2] was “CoCl2 (51%)”.
For `[Cl][Cu][Cl]` [CuCl2], the “Activation by metal ions” value [1] was “CuCl2 (8%)” and the “Activation by metal ions” value [2] was “CuCl2 (33%)”.
With `[Cl-].[Cl-].[Mg+2]` [MgCl2] the “Activation by metal ions” value [1] was “MgCl2 (100%)” and the “Activation by metal ions” value [2] was “MgCl2 (100%)”.
With `[Cl][Mn][Cl]` [MnCl2] the “Activation by metal ions” value [1] was “MnCl2 (268%)” and the “Activation by metal ions” value [2] was “MnCl2 (143%)”.
`[Cl-].[Cl-].[Zn+2]` [ZnCl2] was tested, and the “Activation by metal ions” value [1] was “ZnCl2 (30%)” and the “Activation by metal ions” value [2] was “ZnCl2 (30%)”.
For `O=P1(O)OP(=O)(O)OP(=O)(O)OP(=O)(O)OP(=O)(O)OP(=O)(O)O1` [hexametaphosphate], the Polyphosphate specificity [1] was “(72%)” and the Polyphosphate specificity [2] was “(58%)”.
